From publication PMC12690121 (Nature Communications, 2025)

T1: ArnC (Salmonella enterica, UniProt O52324)
T1 sequence (O52324 1-327): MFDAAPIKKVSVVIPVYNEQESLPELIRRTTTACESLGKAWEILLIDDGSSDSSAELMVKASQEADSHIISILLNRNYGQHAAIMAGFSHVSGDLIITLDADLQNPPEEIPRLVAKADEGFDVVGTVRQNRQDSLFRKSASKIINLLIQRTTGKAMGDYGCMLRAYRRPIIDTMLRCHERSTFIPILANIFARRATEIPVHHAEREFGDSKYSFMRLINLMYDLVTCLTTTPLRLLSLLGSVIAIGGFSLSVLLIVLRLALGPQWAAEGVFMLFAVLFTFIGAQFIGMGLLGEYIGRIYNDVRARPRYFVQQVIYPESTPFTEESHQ

B1: ArnC from Salmonella enterica (ArnCSe) (enzyme)
chain: T1 sequence (O52324 1-327)

Key:
ArnC = molecular target: T1, ArnC; assay: MST; format: binding
cryo-EM structure = molecular target: the molecule itself; assay: cryo-EM structure

Row | Molecule | Kd (ArnC) [µM] | stoichiometry N (cryo-EM structure)
1 | O=c1ccn([C@@H]2O[C@H](COP(=O)(O)OP(=O)(O)O)[C@@H](O)[C@H]2O)c(=O)[nH]1 [UDP] | 8.5 | –
2 | B1 | – | 4
